Laboratory results: patent publication US8415312B2, “Compound which is a nystatin derivative” (Biosergen AS, priority 2007, dated 2013)
Where “and” joins values, the source holds several entries; their conditions need not be identical. Identical values can stand only once.

What was measured:
[1] = Solubility in 5% glucose; assay type: physicochemical
[2] = system: erythrocytes; assay: In vitro toxicity study, haemolysis (Tables 11 and 12); assay type: cell-based, horse; details: for Haemolysis of erythrocytes, Mean ± SE: 5 μg/mL (Table 11); for Haemolysis of erythrocytes: 5 μg/mL, individual blood samples # 1-3 (Table 11)
[3] = system: human blood erythrocytes; assay: In vitro toxicity study, haemolysis (Table 10); assay type: cell-based; details: for Haemolysis of human blood erythrocytes: individual blood samples # 1-3, listed as Amp B

| SMILES | solubility in 5% glucose [1] | Haemolysis of erythrocytes, Mean ± SE [2] | Haemolysis of erythrocytes ([2]; listed as Amp B) | Haemolysis of human blood erythrocytes, MEAN ± SE ([3]; 2 μg/mL) | Haemolysis of human blood erythrocytes ([3]; 2 μg/mL) | Haemolysis of human blood erythrocytes, MEAN ± SE ([3]; 5 μg/mL) | Haemolysis of human blood erythrocytes ([3]; 5 μg/mL) | Haemolysis of erythrocytes [2] |
| --- | --- | --- | --- | --- | --- | --- | --- | --- |
| C[C@@H]1[C@H](O)[C@@H](C)/C=C/C=C/C=C/C=C/C=C/C=C/C=C/[C@H](O[C@@H]2O[C@H](C)[C@@H](O)[C@H](N)[C@@H]2O)C[C@@H]2O[C@](O)(C[C@@H](O)C[C@@H](O)[C@H](O)CC[C@@H](O)C[C@@H](O)CC(=O)O[C@H]1C)C[C@H](O)[C@H]2C(=O)O [Amphotericin B, reference compound] | < 1000 µg/mL | 39.7 ± 1.2% | 39% and 38% and 42% | 6.1 ± 1.0% | 4.4% and 5.9% and 8.0% | 30.3 ± 0.6% | 30% and 29.5% and 31.5% | – |
| CC1C=CC=CC=CC=CC=CC=CC=CC(OC2OC(C)C(O)C(N)C2O)CC2OC(O)(CC(O)C(O)CCC(O)CC(O)CC(O)CC(=O)OC(C)C(C)C1O)CC(O)C2C(=O)NCCCN(C)C (stereo not drawn) [Compound 11, S44HP DMAP Amide] | – | 3.2 ± 0.1% | – | – | – | – | – | 3% and 3.4% and 3.3% |
